Assay results published in ChEMBL document CHEMBL2176887, “Chemokine receptor antagonists” (J Med Chem, 2012).

Key:
[1] = molecular target: T1, Muscarinic acetylcholine receptor M2 (Homo sapiens, UniProt P08172)
T1 sequence (P08172 whole entry): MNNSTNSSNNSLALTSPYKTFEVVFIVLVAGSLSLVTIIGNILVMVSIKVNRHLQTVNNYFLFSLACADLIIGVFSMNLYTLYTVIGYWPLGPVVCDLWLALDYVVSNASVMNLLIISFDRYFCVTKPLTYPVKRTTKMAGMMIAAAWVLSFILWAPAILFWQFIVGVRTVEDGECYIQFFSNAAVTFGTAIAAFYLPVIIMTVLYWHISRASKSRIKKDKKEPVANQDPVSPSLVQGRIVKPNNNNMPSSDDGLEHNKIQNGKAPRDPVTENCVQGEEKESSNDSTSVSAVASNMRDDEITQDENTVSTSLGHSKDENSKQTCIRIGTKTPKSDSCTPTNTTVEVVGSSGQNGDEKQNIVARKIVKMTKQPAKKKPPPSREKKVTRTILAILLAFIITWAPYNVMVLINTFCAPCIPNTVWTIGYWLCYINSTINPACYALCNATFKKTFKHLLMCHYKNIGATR
Description: Binding affinity to muscarinic M2 receptor

[2] = molecular target: C-C chemokine receptor type 5 (Homo sapiens, UniProt P51681)
physchem = details: octanol/water
Description: Lipophilicity, log P of the compound

[3] = molecular target: T2, C-C chemokine receptor type 1 (Homo sapiens, UniProt P32246)
T2 sequence (P32246 whole entry): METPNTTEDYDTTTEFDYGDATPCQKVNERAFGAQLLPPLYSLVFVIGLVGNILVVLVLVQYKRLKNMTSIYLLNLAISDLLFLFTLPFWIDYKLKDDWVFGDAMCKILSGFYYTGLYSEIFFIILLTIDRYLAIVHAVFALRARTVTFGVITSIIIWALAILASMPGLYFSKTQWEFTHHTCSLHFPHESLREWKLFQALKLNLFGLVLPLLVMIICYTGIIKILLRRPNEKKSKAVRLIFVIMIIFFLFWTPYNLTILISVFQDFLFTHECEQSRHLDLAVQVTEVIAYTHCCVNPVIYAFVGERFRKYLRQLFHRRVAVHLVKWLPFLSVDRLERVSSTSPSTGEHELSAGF

[4] = Half life in dog; assay type: ADME, organism-based, Canis lupus familiaris; details: in vivo
[5] = molecular target: T3, C-C chemokine receptor type 3 (Homo sapiens, UniProt P51677)
T3 sequence (P51677 whole entry): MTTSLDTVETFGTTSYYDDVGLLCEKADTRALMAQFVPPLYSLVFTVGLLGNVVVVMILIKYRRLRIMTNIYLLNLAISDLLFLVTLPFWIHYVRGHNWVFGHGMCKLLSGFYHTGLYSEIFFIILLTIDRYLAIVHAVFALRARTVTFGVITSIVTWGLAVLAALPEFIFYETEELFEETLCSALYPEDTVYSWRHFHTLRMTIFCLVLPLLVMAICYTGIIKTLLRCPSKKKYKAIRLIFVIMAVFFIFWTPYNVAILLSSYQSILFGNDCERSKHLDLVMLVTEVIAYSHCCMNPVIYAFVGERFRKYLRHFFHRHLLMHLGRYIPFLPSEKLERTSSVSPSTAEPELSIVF

[6] = Oral bioavailability in dog; assay type: ADME, organism-based, Canis lupus familiaris; details: in vivo
Histamine H1 receptor [7] = molecular target: T4, Histamine H1 receptor (Homo sapiens, UniProt P35367); assay: Antagonist activity at histamine H1 receptor expressed in human PC3 cells inhibition of histamine-induced calcium influx by cell based assay; assay type: functional, PC-3
[8] = molecular target: T3, C-C chemokine receptor type 3; assay: Antagonist activity at human CCR3 assessed as inhibition of CCL11-induced calcium influx by cell based assay; assay type: functional
Thromboxane A2 receptor = molecular target: T5, Thromboxane A2 receptor (Homo sapiens, UniProt P21731)
T5 sequence (P21731 whole entry): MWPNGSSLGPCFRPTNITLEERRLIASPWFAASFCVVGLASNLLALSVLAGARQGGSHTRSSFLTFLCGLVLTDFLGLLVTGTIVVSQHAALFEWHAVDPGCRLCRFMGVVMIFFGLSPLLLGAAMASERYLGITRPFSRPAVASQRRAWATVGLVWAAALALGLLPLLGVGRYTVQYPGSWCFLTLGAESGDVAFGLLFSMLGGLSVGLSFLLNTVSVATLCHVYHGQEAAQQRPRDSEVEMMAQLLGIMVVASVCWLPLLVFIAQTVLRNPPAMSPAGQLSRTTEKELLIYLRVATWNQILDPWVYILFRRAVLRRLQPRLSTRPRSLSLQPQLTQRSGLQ
Description: Binding affinity to TXA2 receptor receptor

Histamine H1 receptor [9] = molecular target: T4, Histamine H1 receptor; assay: Binding affinity to histamine H1 receptor
[10] = molecular target: T6, Type-1 angiotensin II receptor (Homo sapiens, UniProt P30556)
T6 sequence (P30556 whole entry): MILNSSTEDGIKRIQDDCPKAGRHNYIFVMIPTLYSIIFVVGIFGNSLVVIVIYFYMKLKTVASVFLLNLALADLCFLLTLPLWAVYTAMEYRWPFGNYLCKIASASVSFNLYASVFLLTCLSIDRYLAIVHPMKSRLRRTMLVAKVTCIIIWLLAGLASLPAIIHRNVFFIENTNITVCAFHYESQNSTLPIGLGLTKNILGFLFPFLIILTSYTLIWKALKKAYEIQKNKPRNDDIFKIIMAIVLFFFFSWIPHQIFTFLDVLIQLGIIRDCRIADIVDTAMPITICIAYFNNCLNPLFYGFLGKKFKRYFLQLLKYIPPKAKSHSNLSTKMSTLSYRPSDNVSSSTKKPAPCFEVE
Description: Binding affinity to AT1 receptor

[11] = test system: Human immunodeficiency virus 1; assay: Antiviral activity against Human immunodeficiency virus 1 ADA; assay type: functional, organism-based
[12] = test system: Human immunodeficiency virus 1; assay: Antiviral activity against R5 tropic Human immunodeficiency virus 1; assay type: functional, organism-based
[13] = Oral bioavailability in monkey; assay type: ADME, organism-based, Macaca mulatta; details: rhesus monkey, in vivo
[14] = Half life in human; assay type: ADME, organism-based; details: in vivo
[15] = octanol/water
Description: Lipophilicity, log P of the compound

[16] = test system: Human immunodeficiency virus 1; assay: Antiviral activity against Human immunodeficiency virus 1 clinical isolate; assay type: functional, organism-based
[17] = molecular target: T7, C-X-C chemokine receptor type 2 (Homo sapiens, UniProt P25025)
T7 sequence (P25025 whole entry): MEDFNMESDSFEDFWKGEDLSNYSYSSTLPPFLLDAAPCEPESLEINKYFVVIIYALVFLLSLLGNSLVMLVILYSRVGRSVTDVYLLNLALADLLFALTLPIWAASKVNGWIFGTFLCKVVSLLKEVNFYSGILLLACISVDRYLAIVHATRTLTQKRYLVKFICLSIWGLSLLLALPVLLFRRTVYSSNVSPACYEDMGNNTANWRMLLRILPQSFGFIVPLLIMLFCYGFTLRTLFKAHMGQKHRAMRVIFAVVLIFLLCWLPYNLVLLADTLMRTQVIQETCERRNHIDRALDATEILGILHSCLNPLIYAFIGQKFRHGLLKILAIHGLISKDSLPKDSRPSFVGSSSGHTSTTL
Description: Binding affinity to CXCR2

[18] = molecular target: T7, C-X-C chemokine receptor type 2; assay: Antagonist activity at CXCR2 assessed as inhibition of neutrophil CD11b up-regulation; assay type: functional
[19] = molecular target: T8, C-X-C chemokine receptor type 1 (Homo sapiens, UniProt P25024)
T8 sequence (P25024 whole entry): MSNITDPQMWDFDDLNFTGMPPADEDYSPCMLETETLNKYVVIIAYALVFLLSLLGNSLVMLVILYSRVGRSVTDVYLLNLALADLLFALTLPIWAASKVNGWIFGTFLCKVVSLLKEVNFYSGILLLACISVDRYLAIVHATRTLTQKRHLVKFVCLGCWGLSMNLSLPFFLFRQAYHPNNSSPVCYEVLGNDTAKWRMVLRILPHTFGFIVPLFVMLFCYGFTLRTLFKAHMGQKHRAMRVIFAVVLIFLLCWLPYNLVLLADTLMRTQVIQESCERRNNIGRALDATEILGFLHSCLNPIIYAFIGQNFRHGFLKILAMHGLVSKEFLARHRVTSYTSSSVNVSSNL
Description: Binding affinity to CXCR1

[20] = Half life in rat; assay type: ADME, organism-based; details: in vivo
[21] = Oral bioavailability in rat; assay type: ADME, organism-based; details: in vivo
[22] = Half life in beagle dog; assay type: ADME, organism-based, Canis lupus familiaris; details: in vivo
[23] = molecular target: T9, C-C chemokine receptor type 4 (Homo sapiens, UniProt P51679); assay: Binding affinity to CCR4
T9 sequence (P51679 whole entry): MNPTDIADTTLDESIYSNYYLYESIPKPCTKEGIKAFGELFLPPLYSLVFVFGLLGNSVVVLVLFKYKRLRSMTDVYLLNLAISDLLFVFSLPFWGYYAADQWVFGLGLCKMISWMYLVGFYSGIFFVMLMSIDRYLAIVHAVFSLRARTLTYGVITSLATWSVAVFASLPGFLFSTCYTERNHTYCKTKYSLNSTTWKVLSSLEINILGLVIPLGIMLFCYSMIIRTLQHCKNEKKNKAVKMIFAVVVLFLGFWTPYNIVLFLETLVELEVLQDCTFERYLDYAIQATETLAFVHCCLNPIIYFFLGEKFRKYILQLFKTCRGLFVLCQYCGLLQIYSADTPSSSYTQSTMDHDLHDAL

[24] = Oral bioavailability in beagle dog; assay type: ADME, organism-based, Canis lupus familiaris; details: in vivo
[25] = test system: Human immunodeficiency virus 1; assay: Antiviral activity against CCR5-tropic HIV1; assay type: functional

C-C chemokine receptor type 5, sequence (P51681 whole entry): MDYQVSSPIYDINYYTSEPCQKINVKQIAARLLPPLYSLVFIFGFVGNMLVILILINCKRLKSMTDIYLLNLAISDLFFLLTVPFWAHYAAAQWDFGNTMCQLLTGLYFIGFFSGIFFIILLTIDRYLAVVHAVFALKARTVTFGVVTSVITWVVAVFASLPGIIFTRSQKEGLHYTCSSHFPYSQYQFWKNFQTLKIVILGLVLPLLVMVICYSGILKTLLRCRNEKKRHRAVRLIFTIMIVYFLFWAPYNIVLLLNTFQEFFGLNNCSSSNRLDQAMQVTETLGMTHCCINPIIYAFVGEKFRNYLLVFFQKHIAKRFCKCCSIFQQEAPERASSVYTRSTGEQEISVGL
T4 sequence (P35367 whole entry): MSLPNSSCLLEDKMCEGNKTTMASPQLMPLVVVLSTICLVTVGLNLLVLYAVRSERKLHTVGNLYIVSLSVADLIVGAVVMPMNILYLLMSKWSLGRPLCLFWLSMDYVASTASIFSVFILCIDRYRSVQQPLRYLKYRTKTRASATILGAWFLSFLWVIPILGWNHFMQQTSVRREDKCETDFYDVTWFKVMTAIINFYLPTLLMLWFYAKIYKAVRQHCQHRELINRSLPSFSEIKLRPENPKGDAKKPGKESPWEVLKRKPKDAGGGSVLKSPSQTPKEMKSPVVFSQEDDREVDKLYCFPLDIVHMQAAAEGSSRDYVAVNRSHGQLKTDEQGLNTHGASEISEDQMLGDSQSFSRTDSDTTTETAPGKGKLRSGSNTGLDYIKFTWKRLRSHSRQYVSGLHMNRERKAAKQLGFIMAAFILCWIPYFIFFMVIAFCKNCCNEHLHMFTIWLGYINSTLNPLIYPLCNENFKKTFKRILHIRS

CC(C)(O)CC[C@H](C[C@H](O)[C@H](Cc1cccc(F)c1)NC(=O)c1cnc2ccccc2n1)C(N)=O
Ki [1]: 1320 nM | Ki [2]: 66 nM

Cc1ccc(S(=O)(=O)NC(=O)N2CCC(N3CCC(Oc4ccc(Cl)c(Cl)c4)CC3)CC2)cc1
logP (physchem): 3.8

NCC1CCCN(C(=O)c2ccc3c(c2)C(C(=O)NC2CCN(C/C4=C/CCCCCCC4)CC2)c2ccccc2O3)C1 (configuration not stated)
Ki [3]: 1.8 nM

NC(=O)c1ccc(CNC(=O)NC[C@@H]2CN(Cc3ccc(Cl)c(Cl)c3)CCO2)cc1
half-life [4]: 2.8 h | IC50 [5]: 10 nM | logP (physchem): 2.2 | bioavailability [6]: 89%

Cc1ccc(C(=O)N2CCC(=CC(=O)N[C@@H]3CCN(Cc4ccc5cc(F)ccc5c4)C3)CC2)nn1
Ki (Histamine H1 receptor [7]): 47 nM | Ki [8]: 1.8 nM

O=C(O)Cc1ccc2c(c1)/C(=C/Cn1cnc3ccccc31)c1ccccc1CO2
Ki (Thromboxane A2 receptor): 15 nM

O=C(O)Cc1ccc2c(c1)/C(=C/CN1CCCC(Cc3ccccc3)C1)c1ccccc1CO2 (configuration not stated)
Ki (Thromboxane A2 receptor): 740 nM | Ki (Histamine H1 receptor [9]): 20 nM

Cc1noc(NS(=O)(=O)c2ccccc2-c2ccc(-c3ncco3)cc2)c1C
Ki [10]: > 10000 nM

Cc1nnc(C(=O)NC(C)(C)c2nc(C(=O)NCc3ccc(F)cc3)c(O)c(=O)n2C)o1
logP (physchem): 2.4 | Ki [3]: 5 nM

CN(C)C/C=C1\c2ccccc2COc2ccc(CC(=O)O)cc21
Ki (Thromboxane A2 receptor): > 1000 nM

CCOc1ccc(-n2c([C@@H](C)N(Cc3cccnc3)C(=O)Cc3ccc(OC(F)(F)F)cc3)nc3ncccc3c2=O)cc1
logP (physchem): 3.8

CCO/N=C(\c1ccc(Br)cc1)C1CCN(C2(C)CCN(C(=O)c3c(C)cc[n+]([O-])c3C)CC2)CC1 [ANCRIVIROC]
IC50 [11]: 0.6 nM | Ki [2]: 2 nM

CCCCN1C(=O)[C@@H]([C@H](O)C2CCCCC2)NC(=O)C12CCN(Cc1ccc(Oc3ccc(C(=O)O)cc3)cc1)CC2 [APLAVIROC]
IC50 [12]: 0.1 nM | logP (physchem): 3.8 | bioavailability [13]: 30%

CC(=O)Nc1ccc(O)cc1OC[C@@](C)(O)CNC1CCN(Cc2ccc(Cl)cc2)CC1 [AZD4818]
logP (physchem): 1.9 | Ki [3]: 5 nM

CCN(C(=O)Cc1ccc(S(C)(=O)=O)cc1)C1CCN(CC[C@@H](c2cc(F)cc(F)c2)C2CCC(S(C)(=O)=O)CC2)CC1 (some centres not stated) [AZD-5363]
logP (physchem): 3.1 | IC50 [2]: 0.17 nM

CCCCOCCOc1ccc(-c2ccc3c(c2)/C=C(/C(=O)Nc2ccc([S@@+]([O-])Cc4cncn4CCC)cc2)CCCN3CC(C)C)cc1 [CENICRIVIROC]
half-life [14]: 35 h | logP [15]: 10.2 | EC50 [16]: 0.061 nM

O=C(Nc1ccc(Cl)c(S(=O)(=O)N2CCNCC2)c1O)Nc1cccc(F)c1Cl [ELUBRIXIN]
IC50 [17]: 5.1 nM | IC50 [18]: 261 nM | logP (physchem): 4.2 | IC50 [19]: > 10000 nM

COc1cccc2c1c(NS(=O)(=O)c1ccc(Cl)s1)nn2Cc1cccc(NC(=O)CO)c1 [GSK-2239633]
half-life [20]: 2.5 h | bioavailability [21]: 85% | half-life [22]: 2.6 h | Ki [23]: 10 nM | bioavailability [24]: 97%

CCO[C@@H]1Cc2cc(C(F)(F)F)ccc2[C@H]1N1CCN(C2(C)CCN(C(=O)c3c(C)ncnc3C)CC2)C[C@@H]1C [INCB-9471]
logP (physchem): 3.9 | IC50 [2]: 3.1 nM

Cc1nnc(C(C)C)n1[C@@H]1C[C@H]2CC[C@@H](C1)N2CC[C@H](NC(=O)C1CCC(F)(F)CC1)c1ccccc1 [MARAVIROC]
logP (physchem): 4.4

Cc1nnc(C(C)C)n1[C@H]1C[C@H]2CC[C@@H](C1)N2CC[C@H](NC(=O)C1CCC(F)(F)CC1)c1ccccc1 [MARAVIROC]
IC90 [25]: 2 nM

CC[C@@H](Nc1c(Nc2cccc(C(=O)N(C)C)c2O)c(=O)c1=O)c1ccc(C)o1 [NAVARIXIN ANHYDROUS]
logP (physchem): 1

c1cc(CN2CCCNCCNCCCNCC2)ccc1CN1CCCNCCNCCCNCC1 [PLERIXAFOR]
logP [15]: -0.4

CC(C)(C)c1ccc(S(=O)(=O)Nc2ccc(Cl)cc2C(=O)c2cc[n+]([O-])cc2)cc1 [VERCIRNON]
logP (physchem): 4.7

COC[C@@H](c1ccc(C(F)(F)F)cc1)N1CCN(C2(C)CCN(C(=O)c3c(C)ncnc3C)CC2)C[C@@H]1C [VICRIVIROC]
logP (physchem): 3.6
